According to patent US9376420B2 (YUHAN CORPORATION, priority 2012, dated 2016):

Molecular target: T1, human LXRβ (Homo sapiens, UniProt P55055)
T1 construct: expressed in transfected cells; host or cells: HEK293 cells (ATCC CRL-1573), transient transfection with pFA-hLXRβ/GAL4 and pUAS
T1 sequence (P55055 222-460 limits assumed): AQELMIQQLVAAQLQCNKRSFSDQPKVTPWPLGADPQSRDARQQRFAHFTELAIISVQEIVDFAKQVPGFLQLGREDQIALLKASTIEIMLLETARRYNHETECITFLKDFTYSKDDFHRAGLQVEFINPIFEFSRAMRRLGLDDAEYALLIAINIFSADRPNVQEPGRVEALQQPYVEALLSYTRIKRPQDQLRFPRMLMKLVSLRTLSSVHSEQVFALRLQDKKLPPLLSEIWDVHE
Test: Assay for Transcriptional Activity of LXRβ (GAL4-hLXRβ LBD luciferase reporter, transient transfection)
Type: cell-based
Conditions: HEK293 cells transfected with pFA-hLXRβ/GAL4 and pUAS, 24 hours; for Emax: fold value in comparison with the control (DMSO-treated group); for EC50: increase of transcriptional activity of LXRβ, average of three independent tests
Outline: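 EC50 values, averaged over three independent runs, come from a four-parameter fit of 9-point half-log curves spanning 0.01–50 μM. Luciferase output was read in lysed HEK293 cells 24 h after dosing at 37 °C, following transient transfection with a GAL4-human LXRβ LBD fusion plus GAL4-responsive reporter.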

| Compound | Emax | EC50 |
| --- | --- | --- |
| CS(=O)(=O)c1cc(-c2cccc(C3CC(C(F)(F)C(F)(F)F)=NN3c3ccc(F)cc3F)c2)cc(F)c1CO (centres unmarked) [Example 76, 1-(2,4-difluoro-phenyl)-5-[3′-fluoro-4′-(hydroxymethyl)-5′-(methylsulfonyl)-biphenyl-3-yl]-3-pentafluoroethyl-4,5-dihydro-1H-pyrazole] | 84 fold | 189 nM |
| CS(=O)(=O)c1cncc(-c2cccc(N3N=C(C(F)(F)C(F)(F)F)CC3c3ccc(F)cc3F)c2)c1 (centres unmarked) [Example 207, 5-(2,4-difluoro-phenyl)-1-[3-(5-methanesulfonyl-pyridin-3-yl)-phenyl]-3-pentafluoroethyl-4,5-dihydro-1H-pyrazole] | 16 fold | 6140 nM |
| O=C(CC1CCCC1)N1CC=C(c2cccc(C3CC(C(O)(C(F)(F)F)C(F)(F)F)=NN3c3ccccc3Cl)c2)CC1 (centres unmarked) [Example 232, 1-(2-chloro-phenyl)-5-{3-[1-(2-cyclopentyl-acetyl)-1,2,3,6-tetrahydropyridin-4-yl]-phenyl}-3-[di-(trifluoromethyl)-hydroxy-methyl]-4,5-dihydro-1H-pyrazole] | 77 fold | 70 nM |
| OC(C1=NN(c2ccc(F)cc2F)C(c2ccc(-c3c(F)cc(-n4cnnn4)cc3F)cc2)C1)(C(F)(F)F)C(F)(F)F (centres unmarked) [Example 393, 1-(2,4-difluoro-phenyl)-5-{[2′,6′-difluoro-4′-(tetrazol-1-yl)-biphenyl]-4-yl}-3-[di-(trifluoromethyl)-hydroxy-methyl]-4,5-dihydro-1H-pyrazole] | 8 fold | 790 nM |
| Oc1cccc(-c2cccc(C3CC(C(F)(F)C(F)(F)F)=NN3c3ccccc3Cl)c2)c1 (centres unmarked) [Example 111, 1-(2-chloro-phenyl)-5-(3′-hydroxy-biphenyl-3-yl)-3-pentafluoroethyl-4,5-dihydro-1H-pyrazole] | 41 fold | 4150 nM |
| 1-(2,4-difluoro-phenyl)-5-(4-fluoro-3′-methanesulfonyl-biphenyl-3-yl)-3-pentafluoroethyl-4,5-dihydroxy-1H-pyrazole [Example 141] | 127 fold | 18 nM |
| C[S+]([O-])c1ccc(-c2cccc(C3CC(C(F)(F)C(F)(F)F)=NN3c3ccc(F)cc3F)c2)cc1 (centres unmarked) [Example 52, 1-(2,4-difluoro-phenyl)-5-(4′-methanesulfinyl-biphenyl-3-yl)-3-pentafluoroethyl-4,5-dihydro-1H-pyrazole] | 56 fold | 546 nM |
| Cc1ccc(-c2ccc(C3CC(C(O)(C(F)(F)F)C(F)(F)F)=NN3c3ccccc3Cl)cc2)cc1 (centres unmarked) [Example 250, 1-(2-chloro-phenyl)-5-(4′-methyl-biphenyl-4-yl)-3-[di-(trifluoromethyl)-hydroxy-methyl]-4,5-dihydro-1H-pyrazole] | 107 fold | 625 nM |
| CSc1ccc(-c2cccc(C3CC(C(F)(F)C(F)(F)F)=NN3c3ccc(F)cc3F)c2)cc1 (centres unmarked) [Example 30, 1-(2,4-difluoro-phenyl)-5-(4′-methylsulfanyl-biphenyl-3-yl)-3-pentafluoroethyl-4,5-dihydro-1H-pyrazole] | 66 fold | 8570 nM |
| O=C(c1cccs1)N1CC=C(c2cccc(C3CC(C(O)(C(F)(F)F)C(F)(F)F)=NN3c3ccccc3Cl)c2)CC1 (centres unmarked) [Example 234, 1-(2-chloro-phenyl)-5-{3-[1-(thiophene-2-carbonyl)-1,2,3,6-tetrahydropyridin-4-yl]-phenyl}-3-[di-(trifluoromethyl)-hydroxy-methyl]-4,5-dihydro-1H-pyrazole] | 49 fold | 13 nM |
| CS(=O)(=O)c1cccc(-c2cccc(C3CC(C(F)(F)C(F)(F)F)=NN3c3ccccc3Cl)n2)c1 (centres unmarked) [Example 157, 1-(2-chloro-phenyl)-5-[2-(3-methanesulfonyl-phenyl)-pyridin-6-yl]-3-pentafluoroethyl-4,5-dihydro-1H-pyrazole] | 96 fold | 397 nM |
| CS(=O)(=O)N1CC=C(c2cccc(C3CC(C(F)(F)C(F)(F)F)=NN3c3ccc(F)cc3F)c2)CC1 (centres unmarked) [Example 62, 1-(2,4-difluoro-phenyl)-5-[3-(1-methanesulfonyl-1,2,3,6-tetrahydropyridin-4-yl)-phenyl]-3-pentafluoroethyl-4,5-dihydro-1H-pyrazole] | 59 fold | 1160 nM |
| CS(=O)(=O)c1ccc(-c2ccc(C3CC(C(O)(C(F)(F)F)C(F)(F)F)=NN3c3ccccc3Cl)cc2)cc1 (centres unmarked) [Example 244, 1-(2-chloro-phenyl)-5-[4′-(methanesulfonyl)-biphenyl-4-yl]-3-[di-(trifluoromethyl)-hydroxy-methyl]-4,5-dihydro-1H-pyrazole] | 100 fold | 298 nM |

Next, values leading:

| Emax | EC50 | Compound |
| --- | --- | --- |
| 48 fold | 437 nM | COc1cc(C)c(-c2ccc(C3CC(C(O)(C(F)(F)F)C(F)(F)F)=NN3c3ccccc3Cl)cc2)cn1 (centres unmarked) [Example 270, 1-(2-chloro-phenyl)-5-[4-(6-methoxy-4-methyl-pyridin-3-yl)-phenyl]-3-[di-(trifluoromethyl)-hydroxy-methyl]-4,5-dihydro-1H-pyrazole] |
| 39 fold | 2030 nM | O=S1(=O)CCN(c2ccc(C3CC(C(O)(C(F)(F)F)C(F)(F)F)=NN3c3ccccc3Cl)cc2)CC1 (centres unmarked) [Example 329, 1-(2-chloro-phenyl)-5-[4-(1,1-dioxo-thiomorpholin-4-yl)-phenyl]-3-[di-(trifluoromethyl)-hydroxy-methyl]-4,5-dihydro-1H-pyrazole] |
| 45 fold | 1150 nM | COC(=O)c1cncc(-c2ccc(C3CC(C(O)(C(F)(F)F)C(F)(F)F)=NN3c3ccccc3Cl)cc2)c1 (centres unmarked) [Example 273, 1-(2-chloro-phenyl)-5-[4-(5-methoxycarbonyl-pyridin-3-yl)-phenyl]-3-[di-(trifluoromethyl)-hydroxy-methyl]-4,5-dihydro-1H-pyrazole] |
| 74 fold | 154 nM | CS(=O)(=O)N1CCCN(c2ccc(C3CC(C(O)(C(F)(F)F)C(F)(F)F)=NN3c3ccc(F)cc3F)cc2)CC1 (centres unmarked) [Example 410, 1-(2,4-difluoro-phenyl)-5-[4-(4-methanesulfonyl-homopiperazin-1-yl)-phenyl]-3-[di-(trifluoromethyl)-hydroxy-methyl]-4,5-dihydro-1H-pyrazole] |
| 13 fold | 6600 nM | CC(C)(C)OC(=O)N1CC=C(c2cccc(N3N=C(C(O)(C(F)(F)F)C(F)(F)F)CC3c3ccccc3Cl)c2)CC1 (centres unmarked) [Example 433, 5-(2-chloro-phenyl)-1-[3-(1-BOC-1,2,3,6-tetrahydropyridin-4-yl)-phenyl]-3-[di-(trifluoromethyl)-hydroxy-methyl]-4,5-dihydro-1H-pyrazole] |
| 60 fold | 771 nM | OC(C1=NN(c2ccc(F)cc2F)C(c2ccc(-c3ccccn3)cc2)C1)(C(F)(F)F)C(F)(F)F (centres unmarked) [Example 385, 1-(2,4-difluoro-phenyl)-5-[4-pyridin-2-yl-phenyl]-3-[di-(trifluoromethyl)-hydroxy-methyl]-4,5-dihydro-1H-pyrazole] |
| 51 fold | 270 nM | CN(CCO)S(=O)(=O)c1cccc(-c2ccc(C3CC(C(O)(C(F)(F)F)C(F)(F)F)=NN3c3ccccc3Cl)cc2)c1 (centres unmarked) [Example 283, 1-(2-chloro-phenyl)-5-{3′-[(2-hydroxy-ethyl)-methyl-sulfamoyl]-biphenyl-4-yl}-3-[di-(trifluoromethyl)-hydroxy-methyl]-4,5-dihydro-1H-pyrazole] |
| 51 fold | 729 nM | OC(C1=NN(c2ccccc2Cl)C(c2ccc(-c3ccc(F)c(Cl)c3)cc2)C1)(C(F)(F)F)C(F)(F)F (centres unmarked) [Example 256, 5-(3′-chloro-4′-fluoro-biphenyl-4-yl)-1-(2-chloro-phenyl)-3-[di-(trifluoromethyl)-hydroxy-methyl]-4,5-dihydro-1H-pyrazole] |
| 87 fold | 1240 nM | Cc1cccc(-c2ccc(C3CC(C(O)(C(F)(F)F)C(F)(F)F)=NN3c3ccccc3Cl)cc2)n1 (centres unmarked) [Example 276, 1-(2-chloro-phenyl)-5-[4-(6-methyl-pyridin-2-yl)-phenyl]-3-[di-(trifluoromethyl)-hydroxy-methyl]-4,5-dihydro-1H-pyrazole] |
| 36 fold | 495 nM | O=S(=O)(N1CC=C(c2ccc(C3CC(C(O)(C(F)(F)F)C(F)(F)F)=NN3c3ccccc3Cl)cc2)CC1)N1CCCC1 (centres unmarked) [Example 308, 1-(2-chloro-phenyl)-5-{4-[1-(pyrrolidine-1-sulfonyl)-1,2,3,6-tetrahydropyridin-4-yl]-phenyl}-3-[di-(trifluoromethyl)-hydroxy-methyl]-4,5-dihydro-1H-pyrazole] |
| 94 fold | 136 nM | CS(=O)(=O)c1ccc(-c2ccc(C3CC(C(O)(C(F)(F)F)C(F)(F)F)=NN3c3ccccc3Cl)cc2)cn1 (centres unmarked) [Example 335, 1-(2-chloro-phenyl)-5-[4-(6-methanesulfonyl-pyridin-3-yl)-phenyl]-3-[di-(trifluoromethyl)-hydroxy-methyl]-4,5-dihydro-1H-pyrazole] |
| 27 fold | 47 nM | CS(=O)(=O)c1ccc(-c2ccc(C3CC(C(O)(C(F)(F)F)C(F)(F)F)=NN3c3ccc(F)cc3F)cc2)cc1F (centres unmarked) [Example 387, 1-(2,4-difluoro-phenyl)-5-(3′-fluoro-4′-methanesulfonyl-biphenyl-4-yl)-3-[di-(trifluoromethyl)-hydroxy-methyl]-4,5-dihydro-1H-pyrazole] |
